Results: PubChem BioAssay (NCI)
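Growth conditions: 96-well plates. Treatment: test compound, 48 hours, 5 concentrations. Analysis: linear interpolation between bracketing concentrations; unreached endpoints set to highest concentration. Abbreviation: GI50, concentration required for 50% inhibition of growth. Definition used: TGI = concentration required for complete inhibition of growth.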

System: MDA-MB-468 breast
Assay: growth of human tumour cells (NCI), 48 h

| SMILES | GI50 [nM] | TGI [nM] |
| --- | --- | --- |
| Cc1ccc(Cc2cnc(NC(=O)/C=C/c3cccc(C)c3)s2)cc1 | 309 | – |
| CC(=O)N1C/C(=C/c2ccc(Cl)cc2)C(=O)/C(=C/c2ccc(Cl)cc2)C1 | 469 | 1760 |
| CC(C)C[C@H](NC(=O)Cn1ccc(NCc2ccccc2)cc1=O)B(O)O | 370 | 1780 |
| C[C@@H](O)[C@H](NC(=O)N[C@@H](CC(N)=O)c1nc([C@@H](N)CO)no1)C(=O)O | > 100000 | > 100000 |
| COc1cc(-c2ccc(-c3ccc(C(=N)N)nc3)s2)cc(OC)c1OC | 1740 | 4410 |
| CS(=O)(=O)CCNCc1ccc(-c2ccc3ncnc(Nc4ccc(OCc5ccccc5)c(Br)c4)c3c2)o1 | 82 | 1000 |
| COc1cc2c(cc1OC)-c1ccc3cc4c(cc3c1N(CCCn1ccnc1)C2)OCO4 | 397 | 2730 |
| O=C1NC(=O)C(c2ccccc2Cl)=C1Nc1cc(Cl)c(O)c(Cl)c1 | 6290 | > 21400 |
| N#CC1=C(N)Oc2c(ccc3ccccc23)C1c1ccccc1 (configuration not stated) | 75.1 | 1790 |
| O=S(=O)(NCCCNc1nccc(-c2c(-c3ccc(F)c(O)c3)nc3sccn23)n1)c1ccc(F)cc1 | 2620 | 7350 |
| Cc1ccc2c(-c3ccnc(Nc4ccccc4)n3)c(-c3ccc(F)cc3)nn2n1 | 961 | 6350 |
| C=C(C)[C@@H]1CC[C@]2(C(=O)O)CC[C@]3(C)[C@H](CC[C@@H]4[C@@]5(C)CCC(NC(=O)c6cccc(OC(C)=O)c6OC(C)=O)C(C)(C)[C@@H]5CC[C@]43C)[C@@H]12 (some centres not stated) | 424 | 2890 |
| C=CCn1c(SCC(=O)Nc2ccc(C(=O)/C=C/c3cc(OC)c(OC)c(OC)c3)cc2)nnc1-c1c[nH]c2ccccc12 | 1770 | 4210 |
| C=C(CN1CCN(c2cccc(C(F)(F)F)n2)CC1)c1ccc(C(=O)Nc2ccccc2N)cc1 | 1190 | 7280 |
| COc1cc(N2CCC(N3CCN(C)CC3)CC2)ccc1Nc1ncnc(Nc2ccccc2S(=O)(=O)C(C)C)n1 | 4780 | 20300 |
| COc1ccc(NC([Se])=NC23CC4CC(CC(C4)C2)C3)cc1 | 1350 | 3420 |
| CC(=Nc1ccccc1)C1=C(O)C(Cc2ccc(O)cc2)NC1=O (configuration not stated) | 24.4 | 87.4 |

| SMILES | GI50 [nM] | TGI [nM] |
| --- | --- | --- |
| C=C(NC(=O)C(=C)NC(=O)c1csc(C2=NC3c4csc(n4)C4NC(=O)c5csc(n5)C(C(C)(O)C(C)O)NC(=O)C5CSC(=N5)C(=CC)NC(=O)C(C(C)O)NC(=O)c5csc(n5)C3(CC2)NC(=O)C(C)NC(=O)C(=C)NC(=O)C(C)NC(=O)C(C(C)CC)NC2C=Cc3c(C(C)O)cc(nc3C2O)C(=O)OC4C)n1)C(N)=O (configuration not stated) | 1580 | 3630 |
| NC1CCC(Nc2nc(NCc3ccc(-c4ccccc4O)nc3)c3ncn(C4CCCC4)c3n2)CC1 (configuration not stated) | < 10 | 12.9 |
| CCC(=O)Nc1ccccc1C#C/C=C\C#Cc1ccccc1SC | 3120 | > 100000 |
| CCN(Cc1ccccc1)c1ccc(CO)c(Cl)c1 | 20.2 | 55.9 |
| CNC(=O)c1ccc(N2C(=S)N(c3ccc(C#N)c(C(F)(F)F)c3)C(=O)C2(C)C)cc1F | 17100 | > 75700 |
| CCOC(=O)NC1C2CC(=O)OC(O2)C1OC(C)=O (configuration not stated) | > 100000 | > 100000 |
| COc1cccc(/C=C/[N+](=O)[O-])c1 | 2300 | 5210 |
| C/C(=N\Nc1cc(C)c2ccccc2n1)c1ccccn1 | 66.2 | 749 |
| COc1ccc(-c2cc(-c3ccc(Cl)cc3)nc(SCCCC(=O)NO)n2)cc1 | 1490 | 4340 |
| COc1cc2ncn(-c3cc(O[C@@H](C)c4ccccc4Cl)c(C(N)=O)s3)c2cc1OC | 120 | 1610 |
| O=C1CC(=O)N(C(=O)c2nn(-c3ccc(Cl)cc3)cc2O)N1 | 716 | > 66500 |
| C=C1C(=O)O[C@H]2[C@H]1CC/C(COC(=O)C(=O)c1cn(C)c3ccc(Cl)cc13)=C\CC[C@@]1(C)O[C@@H]21 | 248 | 637 |
| O=C(O)c1ccc(Oc2nccc(-c3c(-c4ccc(F)cc4)ncn3C3CCNCC3)n2)cc1 | > 25000 | > 25000 |
| C=C1C(=O)O[C@H]2[C@H]1CC/C(COC(=O)c1cc3ccccc3o1)=C\CC[C@@]1(C)O[C@@H]21 | 1500 | 3720 |
| CCCN(CCC)c1ccc(/C=C/c2ccc3cc(OCC)ccc3n2)cc1 | 80100 | > 100000 |
| Cc1c2c(cc[n+]1Cc1ccccc1)c1ccc(OCc3ccccc3)cc1n2Cc1ccccc1 | 191 | 915 |
| Cc1nc2sc(C(=O)Nc3cccc4ccccc34)c(N)c2cc1C(O)c1ccccc1 (configuration not stated) | 35.1 | 15200 |
